Measured values: US9096594B2, “Kinase inhibitors and methods of use thereof” (priority 2012, dated 2015)
Where two headings read alike, the source gives them in different places.

Key:
[1] = biological target: T1, GSK3β (Homo sapiens (Human), UniProt P49841)
Procedure: GSK3β Microfluidic Mobility-Shift Assay
(§1) Reactions were terminated by the addition of 10 mM EDTA. Substrate and product were separated electrophoretically and fluorescence intensity of the substrate and product was determined by Labchip EZ Reader II (Caliper Life Sciences, MA). The kinase activity was measured as percent conversion. The reactions were performed in duplicate for each sample. […] The results were analyzed by Genedata Assay Analyzer. The percent inhibition was plotted against the compound concentration and the IC50 value was determined from the logistic dose-response curve fitting.

[2] = biological target: CDK5/p25 (Homo sapiens (Human), UniProt Q00535)
Procedure: Biochemical characterization of these synthesized compounds were assayed against GSK3β and CDK5/p25, with CDK5/p25 serving as a counter target of GSK3β selectivity. […] The effects of these compounds on survival of SH-SY5Y pathophysiology cells were also monitored.

[3] = biological target: T2, GSK3α (Homo sapiens (Human), UniProt P49840); assay: biochemical
Procedure: GSK3β Microfluidic Mobility-Shift Assay
as §1

[4] = biological target: T1, GSK3β; assay: biochemical
Procedure: GSK3β Microfluidic Mobility-Shift Assay
as §1

[5] = biological target: T1, GSK3β; assay: biochemical; remark: listed apart in the source
[6] = biological target: CK1δ (Homo sapiens (Human), UniProt P48730); assay: biochemical
CK1δ, sequence (P48730 whole entry): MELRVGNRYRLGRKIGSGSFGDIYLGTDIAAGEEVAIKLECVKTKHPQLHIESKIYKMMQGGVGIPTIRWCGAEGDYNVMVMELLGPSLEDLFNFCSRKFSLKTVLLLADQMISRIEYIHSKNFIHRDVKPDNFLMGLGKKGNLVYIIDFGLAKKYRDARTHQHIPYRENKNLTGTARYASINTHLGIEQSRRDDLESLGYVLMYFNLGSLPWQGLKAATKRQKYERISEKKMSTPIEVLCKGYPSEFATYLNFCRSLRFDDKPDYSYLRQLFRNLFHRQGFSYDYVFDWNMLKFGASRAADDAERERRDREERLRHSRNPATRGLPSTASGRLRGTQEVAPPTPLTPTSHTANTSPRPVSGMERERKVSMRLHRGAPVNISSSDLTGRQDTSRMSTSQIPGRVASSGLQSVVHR
Source text: Approximately 20,000 Response Units (RU) of anti GST-antibody (GE Healthcare Life Sciences) were immobilized on Flow Cell (FC) 1 and FC2 of a new, freshly conditioned CM5 Sensor Chip (GE Healthcare Life Sciences) in a Biacore T100 instrument utilizing the immobilization wizard of the T100 software package. Approximately 1,500 RU of recombinant GST (GE Healthcare Life Sciences) was then captured on FC1 utilizing the capture wizard protocol of the T100 software package. FC1 is used as a reference subtraction point for this and all SPR assays. Approximately 2,700 RU of recombinant GST-CK1δ was then captured on FC2 utilizing the capture wizard protocol of the T100 software package. FC2 is used as the active flowcell for this and all SPR assays. The analyte plate is generated in dose response fashion in TBS buffer containing a final concentration of 2% DMSO, with a final analyte concentration of 10 μM, 100 nM and 10 nM. A zero value is determined by running injections of buffer containing only 2% DMSO and no analyte. All injections are run in duplicate and are reference subtracted from FC1. A method consisting of a 60 second contact time and 60 second wash time with a flow rate of 30 μL/min was employed. […] Analysis of compounds was done using the 1:1 binding model and affinity measurements in the Biacore T100 evaluation software package.
Conditioning new chip: PBS immobilization buffer was loaded into buffer shelf and insert buffer line A. Unused CM5 sensor chip was loaded into instrument per user manual. Chip was primed with 6 minutes of buffer injection at 30 μL/min.
Primed chip again as described above. Generated anti GST antibody solution by mixing 4.5 μL anti GST antibody (GE Healthcare Life Sciences, GST Capture Kit) with 95.5 μL immobilization buffer (GE Healthcare Life Sciences, GST Capture Kit). Put solution into 700 μL small vial and cap. Repeated. Placed both vials in reagent rack 1 of Biacore T100 instrument and insert into machine per user manual. Initiated immobilization of anti GST antibody by utilizing the immobilization Wizard protocol of Biacore T100 software. Immobilized approximately 20,000 Response Units (RU) of anti GST antibody on FC1 and FC2. […] Inserted buffer line A. Repeated prime procedure. Generated GST protein solution by mixing 2 μL of recombinant GST (GE Healthcare Life Sciences, GST Capture Kit) with 98 μL TBS 2% DMSO buffer. Generated GST-CK1δ protein solution by mixing 5 μL of recombinant GST-CK1δ with 95 μL TBS 2% DMSO running buffer. Placed GST protein solution in position B1 on reagent rack 1. Placed GST-CK1δ protein solution in position Cl on reagent rack 1. Initiated a manual injection run and inject for 30 seconds at 5 μL/min GST protein solution on FC1 to generate reference flow cell. […] Captured approximately 1500 RU GST protein on FC1. Captured approximately 2700 RU GST-CK1δ protein on FC2.
An analyte plate was generated for the assay. Using a standard deep volume 384 well plate, placed 100 μL of a 10 μM analyte in TBS 2% DMSO solution wells A1 and A2. Placed 100 μL of a 50 nM analyte in TBS 2% DMSO solution in wells A3 and A4. Placed 100 μL of a 10 nM analyte in TBS 2% DMSO solution in wells A5 and A6. Placed 100 μL of TBS 2% DMSO running buffer in wells A7 and A8. Repeated steps for subsequent analytes. Placed analyte plate in Biacore T100 per user manual.

[7] = biological target: T1, GSK3β; assay: biochemical; remark: listed apart in the source
[8] = biological target: T2, GSK3α
Procedure: GSK3β Microfluidic Mobility-Shift Assay
as §1

CDK5/p25, sequence (Q00535 whole entry, species assumed): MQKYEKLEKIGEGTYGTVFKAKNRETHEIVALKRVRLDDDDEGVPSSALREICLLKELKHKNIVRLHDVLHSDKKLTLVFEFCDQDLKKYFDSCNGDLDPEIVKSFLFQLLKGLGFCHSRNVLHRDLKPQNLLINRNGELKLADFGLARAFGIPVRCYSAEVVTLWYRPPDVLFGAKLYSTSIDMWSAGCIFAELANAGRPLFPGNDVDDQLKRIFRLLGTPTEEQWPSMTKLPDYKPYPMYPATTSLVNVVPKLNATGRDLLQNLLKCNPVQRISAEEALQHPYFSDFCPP
CDK5/p25, sequence (Q15078 99-307 partner, species assumed): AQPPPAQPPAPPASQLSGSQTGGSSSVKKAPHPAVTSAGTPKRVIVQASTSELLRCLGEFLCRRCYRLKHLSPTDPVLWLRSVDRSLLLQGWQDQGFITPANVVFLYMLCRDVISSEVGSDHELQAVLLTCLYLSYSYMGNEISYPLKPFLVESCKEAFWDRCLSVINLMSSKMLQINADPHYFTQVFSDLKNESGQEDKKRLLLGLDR
T1 sequence (P49841 whole entry): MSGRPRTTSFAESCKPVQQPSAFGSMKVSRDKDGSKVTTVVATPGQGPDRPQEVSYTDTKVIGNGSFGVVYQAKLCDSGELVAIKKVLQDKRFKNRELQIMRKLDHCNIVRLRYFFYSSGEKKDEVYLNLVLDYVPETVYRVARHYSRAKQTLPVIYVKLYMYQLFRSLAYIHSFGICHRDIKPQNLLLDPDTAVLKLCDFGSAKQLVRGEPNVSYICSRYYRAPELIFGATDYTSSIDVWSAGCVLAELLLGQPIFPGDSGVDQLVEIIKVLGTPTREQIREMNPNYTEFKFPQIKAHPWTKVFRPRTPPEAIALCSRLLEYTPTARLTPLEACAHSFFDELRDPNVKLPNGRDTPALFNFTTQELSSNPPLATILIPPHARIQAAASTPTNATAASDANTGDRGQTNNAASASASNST
T2 sequence (P49840 whole entry): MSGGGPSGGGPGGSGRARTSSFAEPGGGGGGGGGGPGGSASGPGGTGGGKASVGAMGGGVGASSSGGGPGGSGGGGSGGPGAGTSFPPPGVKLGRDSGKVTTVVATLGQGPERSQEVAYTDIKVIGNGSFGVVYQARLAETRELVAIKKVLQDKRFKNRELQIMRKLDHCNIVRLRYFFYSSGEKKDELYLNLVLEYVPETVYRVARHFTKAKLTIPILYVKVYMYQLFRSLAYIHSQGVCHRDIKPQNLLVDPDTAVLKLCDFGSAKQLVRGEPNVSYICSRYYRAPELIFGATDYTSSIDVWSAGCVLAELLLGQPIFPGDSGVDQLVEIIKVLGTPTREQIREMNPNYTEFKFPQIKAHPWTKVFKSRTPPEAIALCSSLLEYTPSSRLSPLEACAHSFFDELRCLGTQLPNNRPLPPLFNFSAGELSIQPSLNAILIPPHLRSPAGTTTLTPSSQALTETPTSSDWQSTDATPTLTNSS

Row | SMILES | IC50 [1] | ADP Glo Assay GSK3β vs CDK5 fold selectivity [2] | IC50 [3] | IC50 [4] | Kd [5] | Kd [6] | IC50 [7] | IC50 [8]
1 | CC1(C)CC(=O)C2=C(C1)Nc1n[nH]c(C(F)(F)F)c1C2c1ccccc1 (stereo not shown) [Compound 52] | < 0.1 µM | 615X | – | – | – | – | – | –
2 | Cc1[nH]nc2c1C(c1ccn[nH]1)C1=C(CC(C)(C)CC1=O)N2 (stereo not shown) [Compound 40, 3,7,7-trimethyl-4-(1H-pyrazol-5-yl)-6,7,8,9-tetrahydro-1H-pyrazolo[3,4-b]quinolin-5(4H)-one] | – | – | 0.101 to 1 µM | 0.101 to 1 µM | 5 to 30 µM | 5 to 30 µM | 1 to 5 µM | –
3 | Cc1[nH]nc2c1C(c1ccccc1Br)C1=C(CC(C)(C)CC1=O)N2 (stereo not shown) [Compound 16] | < 0.1 µM | 14X | – | – | – | – | – | < 0.1 µM
4 | CC1(C)CC(=O)C2=C(C1)Nc1n[nH]c(C(F)(F)F)c1C2c1cccc(F)c1C(F)(F)F (stereo not shown) [Compound 63] | < 0.1 µM | 276X | – | – | – | – | – | –
5 | CC1(C)CC(=O)C2=C(C1)Nc1n[nH]c(C(F)(F)F)c1[C@@H]2c1ccccc1C(F)(F)F (racemic) [Compound 72, 7,7-dimethyl-3-(trifluoromethyl)-4-(2-(trifluoromethyl)phenyl)-6,7,8,9-tetrahydro-2H-pyrazolo[3,4-b]quinolin-5(4H)-one] | – | – | – | < 0.1 µM | – | – | – | < 0.1 µM
6 | Cc1[nH]nc2c1C(c1ccsc1)C1=C(CC(C)(C)CC1=O)N2 (stereo not shown) [Compound 8, 3,7,7-trimethyl-4-(thiophen-3-yl)-6,7,8,9-tetrahydro-1H-pyrazolo[3,4-b]quinolin-5(4H)-one] | – | – | 0.101 to 1 µM | 0.101 to 1 µM | 0.101 to 1 µM | 0.101 to 1 µM | 1 to 5 µM | –
7 | CC1(C)CC(=O)C2=C(C1)Nc1n[nH]c(C(F)(F)F)c1C2c1ccccc1F (stereo not shown) [Compound 58] | < 0.1 µM | – | – | – | – | – | – | –
8 | Cc1[nH]nc2c1C(c1ccc(Cl)s1)C1=C(CC(C)(C)CC1=O)N2 (stereo not shown) [Compound 9, 4-(5-chlorothiophen-2-yl)-3,7,7-trimethyl-6,7,8,9-tetrahydro-1H-pyrazolo[3,4-b]quinolin-5(4H)-one] | – | – | 0.101 to 1 µM | 0.101 to 1 µM | 0.101 to 1 µM | 1 to 5 µM | 1 to 5 µM | –
9 | COc1ccc(C2C3=C(CC(C)(C)CC3=O)Nc3n[nH]c(C)c32)cc1 (stereo not shown) [Compound 24, 4-(4-methoxyphenyl)-3,7,7-trimethyl-6,7,8,9-tetrahydro-1H-pyrazolo[3,4-b]quinolin-5(4H)-one] | – | – | 5 to 30 µM | 1 to 5 µM | 1 to 5 µM | 1 to 5 µM | 5 to 30 µM | –
10 | Cc1[nH]nc2c1C(C)(c1cccc(C(N)=O)c1)C1=C(CC(C)(C)CC1=O)N2 (stereo not shown) [Compound 90, 3-(3,4,7,7-tetramethyl-5-oxo-4,5,6,7,8,9-hexahydro-2H-pyrazolo[3,4-b]quinolin-4-yl)benzamide] | – | – | – | < 0.1 µM | – | – | – | < 0.1 µM
11 | CC1(C)CC(=O)C2=C(C1)Nc1n[nH]c(C(F)(F)F)c1C2(C)c1ccccc1 (racemic) [Compound 68, 4,7,7-trimethyl-4-phenyl-3-(trifluoromethyl)-6,7,8,9-tetrahydro-2H-pyrazolo[3,4-b]quinolin-5(4H)-one] | < 0.1 µM | 244X | – | – | – | – | < 0.1 µM | < 0.1 µM
12 | Cc1[nH]nc2c1C(c1cccnc1)C1=C(CC(C)(C)CC1=O)N2 (stereo not shown) [Compound 37, 3,7,7-trimethyl-4-(pyridin-3-yl)-6,7,8,9-tetrahydro-1H-pyrazolo[3,4-b]quinolin-5(4H)-one] | – | – | 0.101 to 1 µM | 0.101 to 1 µM | 0.101 to 1 µM | 1 to 5 µM | 0.101 to 1 µM | –
13 | Cc1[nH]nc2c1C(c1ccc(Br)cn1)C1=C(CC(C)(C)CC1=O)N2 (stereo not shown) [Compound 39, 4-(5-bromopyridin-2-yl)-3,7,7-trimethyl-6,7,8,9-tetrahydro-1H-pyrazolo[3,4-b]quinolin-5(4H)-one] | – | – | 1 to 5 µM | 1 to 5 µM | 5 to 30 µM | 5 to 30 µM | 1 to 5 µM | –
14 | COC(=O)c1[nH]nc2c1C(C)(c1ccccc1)C1=C(CC(C)(C)CC1=O)N2 (stereo not shown) [Compound 104] | – | – | – | < 0.1 µM | – | – | – | < 0.1 µM
15 | CC1(C)CC(=O)C2=C(C1)Nc1n[nH]c(C(F)(F)F)c1C2c1cc(F)ccc1C(F)(F)F (stereo not shown) [Compound 64] | < 0.1 µM | 162X | – | – | – | – | – | –
16 | Cc1[nH]nc2c1C(c1ccc3c(c1)OCO3)C1=C(CC(C)(C)CC1=O)N2 (stereo not shown) [Compound 26, 4-(benzo[d][1,3]dioxol-5-yl)-3,7,7-trimethyl-6,7,8,9-tetrahydro-1H-pyrazolo[3,4-b]quinolin-5(4H)-one] | – | – | 0.101 to 1 µM | 1 to 5 µM | 1 to 5 µM | 0.101 to 1 µM | 1 to 5 µM | –

Results, then the compound that gave them:

Row | IC50 [1] | ADP Glo Assay GSK3β vs CDK5 fold selectivity [2] | IC50 [3] | IC50 [4] | Kd [5] | Kd [6] | IC50 [7] | IC50 [8] | SMILES
17 | < 0.1 µM | 6X | – | – | – | – | 0.101 to 1 µM | < 0.1 µM | Cc1[nH]nc2c1C(c1ccccc1Cl)C1=C(CC(C)(C)CC1=O)N2 (stereo not shown) [Compound 13, 4-(2-chlorophenyl)-3,7,7-trimethyl-6,7,8,9-tetrahydro-2H-pyrazolo[3,4-b]quinolin-5(4H)-one]
18 | < 0.1 µM | 14X | – | – | – | – | – | – | COc1ccccc1C1C2=C(CC(C)(C)CC2=O)Nc2n[nH]c(C(C)C)c21 (stereo not shown) [Compound 49]
19 | – | 7X | 0.101 to 1 µM | 0.101 to 1 µM | 5 to 30 µM | 5 to 30 µM | 1 to 5 µM | – | Cc1[nH]nc2c1C(c1ccc(F)cc1Cl)C1=C(CC(C)(C)CC1=O)N2 (stereo not shown) [Compound 35, 4-(2-chloro-4-fluorophenyl)-3,7,7-trimethyl-6,7,8,9-tetrahydro-1H-pyrazolo[3,4-b]quinolin-5(4H)-one]
20 | – | – | 0.101 to 1 µM | 0.101 to 1 µM | 5 to 30 µM | 1 to 5 µM | 0.101 to 1 µM | – | COc1cccc(C2C3=C(CC(C)(C)CC3=O)Nc3n[nH]c(C)c32)c1 (stereo not shown) [Compound 23, 4-(3-methoxyphenyl)-3,7,7-trimethyl-6,7,8,9-tetrahydro-1H-pyrazolo[3,4-b]quinolin-5(4H)-one]
21 | < 0.1 µM | 124X | – | – | – | – | < 0.1 µM | < 0.1 µM | CSc1ccccc1C1C2=C(CC(C)(C)CC2=O)Nc2n[nH]c(C)c21 (stereo not shown) [Compound 25, 3,7,7-trimethyl-4-(2-(methylthio)phenyl)-6,7,8,9-tetrahydro-2H-pyrazolo[3,4-b]quinolin-5(4H)-one]
22 | < 0.1 µM | 30X | – | – | – | – | 0.101 to 1 µM | < 0.1 µM | Cc1[nH]nc2c1[C@@H](c1ccccc1C#N)C1=C(CC(C)(C)CC1=O)N2 [Compound 32, 2-(3,7,7-trimethyl-5-oxo-4,5,6,7,8,9-hexahydro-2H-pyrazolo[3,4-b]quinolin-4-yl)benzonitrile]
23 | – | – | – | 0.101 to 1 µM | 0.101 to 1 µM | 0.101 to 1 µM | 0.101 to 1 µM | < 0.1 µM | Cc1[nH]nc2c1C(c1cccc(Cl)c1)C1=C(CC(C)(C)CC1=O)N2 (stereo not shown) [Compound 14, 4-(3-chlorophenyl)-3,7,7-trimethyl-6,7,8,9-tetrahydro-1H-pyrazolo[3,4-b]quinolin-5(4H)-one]
24 | – | – | 0.101 to 1 µM | 1 to 5 µM | 1 to 5 µM | 1 to 5 µM | 1 to 5 µM | – | Cc1[nH]nc2c1C(c1ccc(Cl)cc1)C1=C(CC(C)(C)CC1=O)N2 (stereo not shown) [Compound 15, 4-(4-chlorophenyl)-3,7,7-trimethyl-6,7,8,9-tetrahydro-1H-pyrazolo[3,4-b]quinolin-5(4H)-one]
25 | < 0.1 µM | 51X | – | – | – | – | – | – | Cc1[nH]nc2c1C(c1cccc3nonc13)C1=C(CC(C)(C)CC1=O)N2 (stereo not shown) [Compound 41]
26 | – | – | 0.101 to 1 µM | 0.101 to 1 µM | 0.101 to 1 µM | 0.101 to 1 µM | 0.101 to 1 µM | – | Cc1[nH]nc2c1C(c1cccs1)C1=C(CC(C)(C)CC1=O)N2 (racemic) [Compound 5, 3,7,7-trimethyl-4-(thiophen-2-yl)-6,7,8,9-tetrahydro-1H-pyrazolo[3,4-b]quinolin-5(4H)-one]
27 | < 0.1 µM | 12X | – | – | – | – | < 0.1 µM | < 0.1 µM | Cc1[nH]nc2c1[C@H](c1ccccc1C(F)(F)F)C1=C(CC(C)(C)CC1=O)N2 (racemic) [Compound 28, 3,7,7-trimethyl-4-(2-(trifluoromethyl)phenyl)-6,7,8,9-tetrahydro-2H-pyrazolo[3,4-b]quinolin-5(4H)-one]
28 | – | – | 1 to 5 µM | 0.101 to 1 µM | 0.101 to 1 µM | 5 to 30 µM | 0.101 to 1 µM | – | Cc1[nH]nc2c1C(c1ccccn1)C1=C(CC(C)(C)CC1=O)N2 (stereo not shown) [Compound 36, 3,7,7-trimethyl-4-(pyridin-2-yl)-6,7,8,9-tetrahydro-1H-pyrazolo[3,4-b]quinolin-5(4H)-one]
29 | < 0.1 µM | 35X | – | – | – | – | – | – | CCc1[nH]nc2c1C(c1ccccc1OC)C1=C(CC(C)(C)CC1=O)N2 (stereo not shown) [Compound 48]
30 | < 0.1 µM | 131X | – | – | – | – | < 0.1 µM | < 0.1 µM | Cc1[nH]nc2c1C(c1cccc(C#N)c1)C1=C(CC(C)(C)CC1=O)N2 (stereo not shown) [Compound 33, 3-(3,7,7-trimethyl-5-oxo-4,5,6,7,8,9-hexahydro-2H-pyrazolo[3,4-b]quinolin-4-yl)benzonitrile]
31 | – | 61X | – | 0.101 to 1 µM | 1 to 5 µM | 0.101 to 1 µM | 0.101 to 1 µM | < 0.1 µM | Cc1[nH]nc2c1C(c1cccc(F)c1)C1=C(CC(C)(C)CC1=O)N2 (stereo not shown) [Compound 11, 4-(3-fluorophenyl)-3,7,7-trimethyl-6,7,8,9-tetrahydro-1H-pyrazolo[3,4-b]quinolin-5(4H)-one]
